In patent US6380166B1, “Glucopyranosides conjugates of 2-(4-hydroxy-phenyl)-3-methyl-1-[4-(2-amin-1-yl-ethoxy)-benzyl]-1H-indol-5-ols” (American Home Products Corporation, priority 1999, dated 2002):
Structures can show the parent of a compound that is named as a salt.

Molecular target: T1, estrogen receptor (Homo sapiens, UniProt P03372)
T1 construct: since the MCF-7 cells express estrogen receptors; endogenous in cells; host or cells: MCF-7 human breast carcinoma cells infected with adenovirus 5-ERE-tk-luciferase (reporter only)
T1 sequence (P03372 1-595): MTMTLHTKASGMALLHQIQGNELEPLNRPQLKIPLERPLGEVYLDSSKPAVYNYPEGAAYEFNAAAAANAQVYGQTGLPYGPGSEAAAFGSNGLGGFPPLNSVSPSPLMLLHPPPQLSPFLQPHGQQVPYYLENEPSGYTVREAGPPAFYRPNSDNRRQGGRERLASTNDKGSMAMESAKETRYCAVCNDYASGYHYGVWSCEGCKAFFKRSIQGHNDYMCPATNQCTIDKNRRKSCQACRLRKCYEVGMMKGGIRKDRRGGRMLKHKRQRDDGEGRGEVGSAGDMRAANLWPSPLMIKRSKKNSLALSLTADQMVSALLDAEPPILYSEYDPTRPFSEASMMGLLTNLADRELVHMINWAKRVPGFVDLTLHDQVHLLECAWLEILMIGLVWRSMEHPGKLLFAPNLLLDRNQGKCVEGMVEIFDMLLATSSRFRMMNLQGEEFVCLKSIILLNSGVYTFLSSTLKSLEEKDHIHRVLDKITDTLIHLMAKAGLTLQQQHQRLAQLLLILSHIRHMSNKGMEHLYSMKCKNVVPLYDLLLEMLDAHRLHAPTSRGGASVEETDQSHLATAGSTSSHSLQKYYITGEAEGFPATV
Experiment: MCF-7 ERE-tk-luciferase test procedure, antagonist mode
Type: cell-based
Conditions: co-dosed with 10 pM 17β-estradiol, MCF-7 cells infected with adenovirus 5-ERE-tk-luciferase, treated 24 h
Description: Estrogen antagonist activity was shown for representative compounds of this invention in a standard pharmacological test procedure using MCF-7 cells transfected with an estrogen receptor. When administered orally, the compounds of this invention act at least partially as prodrugs for the corresponding hydroxylated compounds disclosed in EP 802183. Accordingly, the compounds of this invention are tissue selective estrogens, meaning that in certain tissue containing estrogen receptors, the compounds will act as estrogen agonists, and in other tissue containing estrogen receptors, the compounds will act as antagonists. […]
After treatment the cells were lysed on a shaker for 15 min with 25 uL/well of 1× cell culture lysis reagent (Promega Corporation). The cell lysates (20 uL) were transferred to a 96 well luminometer plate, and luciferase activity was measured in a MicroLumat LB 96 P luminometer (EG and G Bethold) using 100 uL/well of luciferase substrate (Promega Corporation). […] Following the injection of the substrate, luciferase activity was measured for 10 seconds after a 1 second delay. The data were transferred from the luminometer to a Macintosh personal computer and analyzed using the JMP software (SAS institute); this program subtracts the background reading from the luciferase measurement for each well and then determine the mean and standard deviation of each treatment. […]

Row | IC50 | SMILES
1 | 230 nM | Cc1c(-c2ccc(O)cc2)n(Cc2ccc(OCCN3CCCCC3)cc2)c2ccc(O[C@@H]3O[C@H](C(=O)O)[C@@H](O)[C@H](O)[C@H]3O)cc12 [Compound 29, 1-[4-(2-Piperidin-1-yl-ethoxy)-benzyl]-2-(4-hydroxy-phenyl)-3-methyl-1H-indol-5-ol 5-O-glucuronide triethylammonium salt]
2 | 1200 nM | Cc1c(-c2ccc(O[C@@H]3O[C@H](C(=O)O)[C@@H](O)[C@H](O)[C@H]3O)cc2)n(Cc2ccc(OCCN3CCCCC3)cc2)c2ccc(O)cc12 [Compound 37, 2-(4-Hydroxy-phenyl)-3-methyl-1-[4-(2-piperidin-1-yl-ethoxy)-benzyl]-1H-indol-5-ol 4-O-Glucuronide Triethyl Ammonium Salt]
